Experimental data: ChEMBL document CHEMBL1140940, “Pyrido[2,3-d]pyrimidin-5-ones: a novel class of antiinflammatory macrophage colony-stimulating factor-1 receptor inhibitors” (J Med Chem, 2009)
The source made the active and inactive calls. The rule behind the calls is not given here.

What was measured:
[1] = tested on: Rattus norvegicus; assay: Reversal of ankle swelling in streptococcal cell wall-induced Lewis rat chronic arthritis model at 1 mg/kg, po twice daily administered on day 19 post streptococcal cell wall challenge; type: functional, organism-based; design: dose 1 mg/kg
[2] = Half life in Sprague-Dawley rat at 10 mg/kg, po; type: ADME, organism-based; design: dose 10 mg/kg, route oral; settings: in vivo
[3] = tested on: Rattus norvegicus; assay: Antiinflammatory effect in Freund's complete adjuvant-induced Lewis rat arthritis model assessed as prevention of bone erosion at 10 mg/kg, po twice daily administered on day 8 post adjuvant challenge measured on day 21 post adjuvant challenge relative to control; type: functional, organism-based; design: dose 10 mg/kg
[4] = Half life in monkey at 2 mg/kg, iv; type: ADME, organism-based, Macaca mulatta; design: dose 2 mg/kg, route intravenous; settings: rhesus monkey, in vivo
[5] = Clearance in monkey at 2 mg/kg, iv; type: ADME, organism-based, Macaca mulatta; design: dose 2 mg/kg, route intravenous; settings: rhesus monkey, in vivo
[6] = Metabolic stability in rat liver microsomes after 10 mins; type: ADME, Microsome; settings: read-out: Stability
[7] = biological target: Platelet-derived growth factor receptor beta (Homo sapiens, UniProt P09619); assay: Inhibition of PDGFRbeta by fluorescence polarization competition immunoassay
[8] = Clearance in dog at 2 mg/kg, iv; type: ADME, organism-based, Canis lupus familiaris; design: dose 2 mg/kg, route intravenous; settings: in vivo
[9] = Half life in dog at 2 mg/kg, iv; type: ADME, organism-based, Canis lupus familiaris; design: dose 2 mg/kg, route intravenous; settings: in vivo
[10] = tested on: Rattus norvegicus; assay: Inhibition of ankle swelling in Freund's complete adjuvant-induced Lewis rat arthritis model at 3 mg/kg, po twice daily administered on day 8 post adjuvant challenge measured on day 21 post adjuvant challenge relative to control; type: functional
[11] = tested on: Rattus norvegicus; assay: Toxicity in rat assessed as tolerability at 40 mg/kg; type: organism-based; design: dose 40 mg/kg; settings: in vivo
[12] = tested on: Rattus norvegicus; assay: Inhibition of ankle swelling in Freund's complete adjuvant-induced Lewis rat arthritis model at 1 mg/kg, po twice daily administered on day 8 post adjuvant challenge measured on day 21 post adjuvant challenge relative to control; type: functional
[13] = Volume of distribution at steady state in Sprague-Dawley rat at 2 mg/kg, iv; type: ADME, organism-based; design: dose 2 mg/kg, route intravenous; settings: in vivo, read-out: Vdss
[14] = Clearance in mouse at 2 mg/kg, iv; type: ADME, organism-based; design: dose 2 mg/kg, route intravenous; settings: in vivo
[15] = tested on: Rattus norvegicus; assay: Antiinflammatory effect in Freund's complete adjuvant-induced Lewis rat arthritis model assessed as prevention of bone erosion at 3 mg/kg, po twice daily administered on day 8 post adjuvant challenge measured on day 21 post adjuvant challenge relative to control; type: functional, organism-based; design: dose 3 mg/kg
[16] = Plasma concentration in Freund's complete adjuvant-induced Lewis rat arthritis model at […], po twice daily administered on day 8 post adjuvant challenge measured 7 days after last dose; type: ADME, organism-based; design: dose 0.33 mg/kg, route oral
[17] = Metabolic stability in monkey liver microsomes after 10 mins; type: ADME, Macaca mulatta, Microsome; settings: rhesus monkey, read-out: Stability
[18] = tested on: Rattus norvegicus; assay: Antiinflammatory effect in Freund's complete adjuvant-induced Lewis rat arthritis model assessed as prevention of osteoclastogenesis at 1 mg/kg, po twice daily administered on day 8 post adjuvant challenge measured on day 21 post adjuvant challenge relative to control; type: functional, organism-based; design: dose 1 mg/kg
[19] = Half life in mouse at 10 mg/kg, po; type: ADME, organism-based; design: dose 10 mg/kg, route oral; settings: in vivo
[20] = Plasma concentration CSF1-induced B6C3F1 mouse at 3 mg/kg, po after 6 hrs; type: ADME, organism-based; design: dose 3 mg/kg, route oral
[21] = Cmax in dog at 10 mg/kg, po; type: ADME, organism-based, Canis lupus familiaris; design: dose 10 mg/kg, route oral; settings: in vivo
[22] = tested on: Mus musculus; assay: Reduction of CSF1-induced increase in c-fos mRNA expression in B6C3F1 mouse at 3 mg/kg, po administered 6 hrs before CSF1 challenge measured 15 mins post CSF1 challenge relative to control; type: functional; design: scale not given: the % may be the effect or the level left
[23] = Volume of distribution at steady state in dog at 2 mg/kg, iv; type: ADME, organism-based, Canis lupus familiaris; design: dose 2 mg/kg, route intravenous; settings: in vivo, read-out: Vdss
[24] = Cmax in Sprague-Dawley rat at 10 mg/kg, po; type: ADME, organism-based; design: dose 10 mg/kg, route oral; settings: in vivo
[25] = Plasma concentration in Freund's complete adjuvant-induced Lewis rat arthritis model at 3 mg/kg, po twice daily administered on day 8 post adjuvant challenge measured 7 days after last dose; type: ADME, organism-based; design: dose 3 mg/kg, route oral
[26] = tested on: Rattus norvegicus; assay: Reversal of ankle swelling in streptococcal cell wall-induced Lewis rat chronic arthritis model at 10 mg/kg, po twice daily administered on day 19 post streptococcal cell wall challenge; type: functional, organism-based; design: dose 10 mg/kg
[27] = biological target: Mast/stem cell growth factor receptor Kit (Homo sapiens, UniProt P10721); assay: Inhibition of KIT by fluorescence polarization competition immunoassay
[28] = tested on: Rattus norvegicus; assay: Inhibition of ankle swelling in Freund's complete adjuvant-induced Lewis rat arthritis model at […], po twice daily administered on day 8 post adjuvant challenge measured on day 21 post adjuvant challenge relative to control; type: functional; settings: dose 0.33 mg/kg
[29] = Cmax in monkey at 10 mg/kg, po; type: ADME, organism-based, Macaca mulatta; design: dose 10 mg/kg, route oral; settings: rhesus monkey, in vivo
[30] = Half life in Sprague-Dawley rat at 2 mg/kg, iv; type: ADME, organism-based; design: dose 2 mg/kg, route intravenous; settings: in vivo

Sequence of Platelet-derived growth factor receptor beta (P09619 whole entry): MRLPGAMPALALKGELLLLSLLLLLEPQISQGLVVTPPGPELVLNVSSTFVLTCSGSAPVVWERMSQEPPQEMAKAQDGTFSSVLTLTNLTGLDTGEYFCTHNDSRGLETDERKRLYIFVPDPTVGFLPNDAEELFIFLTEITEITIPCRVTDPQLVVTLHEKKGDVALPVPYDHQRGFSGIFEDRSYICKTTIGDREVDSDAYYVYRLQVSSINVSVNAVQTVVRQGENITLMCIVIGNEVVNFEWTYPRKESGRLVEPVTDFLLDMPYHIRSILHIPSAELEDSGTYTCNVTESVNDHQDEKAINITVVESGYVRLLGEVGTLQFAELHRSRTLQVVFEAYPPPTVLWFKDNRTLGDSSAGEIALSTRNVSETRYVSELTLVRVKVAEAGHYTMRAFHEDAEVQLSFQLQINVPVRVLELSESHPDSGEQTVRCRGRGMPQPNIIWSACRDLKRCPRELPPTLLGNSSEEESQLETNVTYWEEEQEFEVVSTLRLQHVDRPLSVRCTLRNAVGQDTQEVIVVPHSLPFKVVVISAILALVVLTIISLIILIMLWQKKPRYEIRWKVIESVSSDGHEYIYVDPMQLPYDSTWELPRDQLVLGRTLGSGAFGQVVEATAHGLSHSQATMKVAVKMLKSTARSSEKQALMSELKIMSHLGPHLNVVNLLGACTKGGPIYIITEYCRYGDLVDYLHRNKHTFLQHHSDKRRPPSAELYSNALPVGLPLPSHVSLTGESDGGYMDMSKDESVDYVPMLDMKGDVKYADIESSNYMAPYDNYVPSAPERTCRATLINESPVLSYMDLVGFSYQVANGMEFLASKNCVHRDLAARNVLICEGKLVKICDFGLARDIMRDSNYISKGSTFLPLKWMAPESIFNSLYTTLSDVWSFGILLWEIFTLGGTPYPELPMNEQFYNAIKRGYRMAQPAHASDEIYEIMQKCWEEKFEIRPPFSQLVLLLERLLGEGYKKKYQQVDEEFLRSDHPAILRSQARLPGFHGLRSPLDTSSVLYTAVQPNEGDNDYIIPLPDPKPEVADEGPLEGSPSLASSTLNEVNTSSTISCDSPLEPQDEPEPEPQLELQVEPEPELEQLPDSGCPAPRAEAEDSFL
Sequence of Mast/stem cell growth factor receptor Kit (P10721 whole entry): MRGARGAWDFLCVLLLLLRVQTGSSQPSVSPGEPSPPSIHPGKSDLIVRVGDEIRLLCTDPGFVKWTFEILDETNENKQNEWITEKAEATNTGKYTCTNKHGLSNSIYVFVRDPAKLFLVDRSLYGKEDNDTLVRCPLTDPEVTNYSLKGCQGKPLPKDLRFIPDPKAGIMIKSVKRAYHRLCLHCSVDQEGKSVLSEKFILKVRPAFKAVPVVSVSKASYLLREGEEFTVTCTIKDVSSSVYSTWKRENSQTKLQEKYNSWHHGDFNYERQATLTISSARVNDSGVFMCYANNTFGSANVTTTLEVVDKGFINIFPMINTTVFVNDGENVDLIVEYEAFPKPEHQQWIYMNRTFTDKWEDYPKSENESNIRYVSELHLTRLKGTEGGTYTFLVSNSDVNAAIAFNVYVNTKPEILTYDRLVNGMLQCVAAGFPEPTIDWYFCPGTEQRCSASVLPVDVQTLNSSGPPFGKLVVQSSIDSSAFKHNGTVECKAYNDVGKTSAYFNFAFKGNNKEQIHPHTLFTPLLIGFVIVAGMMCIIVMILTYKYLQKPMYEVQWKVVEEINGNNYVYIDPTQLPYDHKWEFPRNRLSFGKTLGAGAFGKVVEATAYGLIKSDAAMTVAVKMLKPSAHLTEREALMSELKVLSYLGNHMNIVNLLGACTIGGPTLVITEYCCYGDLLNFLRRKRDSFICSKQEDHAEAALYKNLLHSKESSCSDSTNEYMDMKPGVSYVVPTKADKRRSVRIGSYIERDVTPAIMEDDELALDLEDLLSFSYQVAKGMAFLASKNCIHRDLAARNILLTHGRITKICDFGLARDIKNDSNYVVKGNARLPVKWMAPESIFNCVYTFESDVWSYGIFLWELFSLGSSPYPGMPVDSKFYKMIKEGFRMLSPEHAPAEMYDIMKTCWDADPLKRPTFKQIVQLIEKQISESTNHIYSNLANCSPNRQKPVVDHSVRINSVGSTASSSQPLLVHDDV

CONC(=O)c1cn(-c2ccc3c(c2)CCC3)c2nc(Nc3ccc(C4CCN(C)CC4)cc3)ncc2c1=O
Activity [1]: Active
half-life [2]: 6.9 h
Activity [3]: Active
half-life [4]: 6.6 h
clearance [5]: 48.7 mL/min/kg
remaining at 10 min [6]: 96%
IC50 [7]: 150 nM
clearance [8]: 30 mL/min/kg
half-life [9]: 9.3 h
inhibition in vivo at 3 mg/kg [10]: 8%
Activity [11]: Non-toxic
inhibition in vivo at 1 mg/kg [12]: 2%
Vd [13]: 4.3 L/kg
clearance [14]: 34 mL/min/kg
Activity [15]: Active
concentration at 168 h [16]: 14 nM
remaining at 10 min [17]: 14%
Activity [18]: Active
half-life [19]: 4 h
concentration at 6 h [20]: 290 nM
Cmax [21]: 120 nM
Activity [22]: 90%
Vd [23]: 20.3 L/kg
Cmax [24]: 1600 nM
concentration at 168 h [25]: 189 nM
Activity [26]: Active
IC50 [27]: 6 nM
inhibition in vivo at […] [28]: 7%
Cmax [29]: 60 nM
half-life [30]: 4.6 h
